# Assay results published in the supplement of paper PMC10307832.
# Compound: C[C@@H](Oc1cc(-c2cnn(C3CCNCC3)c2)cnc1N)c1c(Cl)ccc(F)c1Cl [Crizotinib] + Cc1nc(NC(=O)N2CCC[C@H]2C(N)=O)sc1-c1ccnc(C(C)(C)C(F)(F)F)c1 [Alpelisib] (partner 2 µM)
# Experiment: relative viability (nuclei count vs DMSO), 5 days (fraction); higher = more cells survive
# Details: first compound 0.01 µM
# Summary of the method: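 Relative viability was taken as the ratio of nuclei in treated wells to nuclei in vehicle wells. Lung cancer cell lines in 1536-well plates received compounds by pin tool one day after seeding, either one drug alone or a fixed anchor-drug dose plus five library-drug doses (not always all listed) in √10 steps. Nuclei were counted on 4× images after 5 days of treatment, and values are medians of duplicate plates.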
row,Cell Line,relative viability
1,A549,0.657
2,A-427,1.04
3,ABC-1,0.964
4,BEN,0.925
5,CAL-12T,1.19
6,COR-L23,0.81
7,Calu-6,0.944
8,EBC-1,0.746
9,EKVX,0.849
10,EMC-BAC-2,0.76
11,EPLC-272H,0.862
12,H3255,0.622
13,HARA,0.859
14,HCC-15,0.846
15,HCC-44,0.808
16,HCC-78,0.278
17,HCC-366,0.547

row,Cell Line,relative viability
1,HCC-827,0.896
2,HOP-62,0.93
3,IA-LM,0.726
4,LC-2-ad,0.839
5,LCLC-97TM1,0.199
6,LCLC-103H,0.917
7,LK-2,1.14
8,LOU-NH91,0.648
9,LU99A,0.549
10,LXF-289,0.968
11,NCI-H727,0.655
12,NCI-H1299,1.12
13,NCI-H1563,0.85
14,NCI-H1703,0.285
15,NCI-H2170,0.804
16,NCI-H2228,0.666

# Same assay, conditions: first compound 0.03162 µM
row,Cell Line,relative viability
1,A549,0.804
2,A-427,1.05
3,ABC-1,1.15
4,BEN,0.992
5,CAL-12T,1.35
6,COR-L23,0.77
7,COR-L 105,0.872
8,EBC-1,0.823
9,EKVX,0.967
10,EMC-BAC-2,0.818
11,EPLC-272H,0.854
12,H3255,0.73
13,HARA,0.836
14,HCC-15,0.938
15,HCC-44,0.801
16,HCC-78,0.292
17,HCC-366,0.485

row,Cell Line,relative viability
1,HCC-827,0.944
2,HOP-62,1
3,IA-LM,0.814
4,LC-2-ad,0.981
5,LCLC-97TM1,0.232
6,LCLC-103H,0.98
7,LK-2,0.885
8,LOU-NH91,0.682
9,LU99A,0.501
10,LXF-289,1.07
11,NCI-H727,0.575
12,NCI-H1299,1.03
13,NCI-H1563,0.838
14,NCI-H1703,0.299
15,NCI-H2170,0.779
16,NCI-H2228,0.799

# Same assay, conditions: first compound 0.1 µM
row,Cell Line,relative viability
1,201T,1.03
2,A549,0.738
3,A-427,1.11
4,ABC-1,1.22
5,BEN,0.864
6,CAL-12T,1.28
7,COR-L23,0.659
8,COR-L 105,0.972
9,Calu-6,0.988
10,EBC-1,0.543
11,EKVX,0.792
